In one test the target is T1, IRAK1 (Homo sapiens, UniProt P51617).
T1 construct: endogenous in cells; host or cells: UMSCC1 and UMSCC47 cells
Description: Western blot for IRAK1 activation (phospho-IRAK1 Thr209) in HNSCC cell lines. Type of test: cell-based. To be noted: 10 μM, 24-72 hours post-treatment, UMSCC1 and UMSCC47 cells. The method, then: Western blotting. Whole cell lysates were harvested using Laemmli buffer and a total of 20 μg of protein was analyzed as described previously. Membranes were probed with DEK (1:1000, BD Biosciences, San Jose, Calif., USA), IRAK1 (1:1000, Santa Cruz Biotechnology, Dallas, Tex., USA (sc-7883)), TRAF6 (1:1000, Santa Cruz (sc-7221)), phospho-IRAK1 (Thr209, 1:800, Assay Biotechnology Company (A1074), Sunnyvale, Calif., USA), phospho-p38 (1:500, Cell Signaling Technologies (4361)), p38 (1:1000, Cell Signaling Technologies (9212)), phospho-ERK1/2 (1:1000, Cell Signaling Technologies (4377)), ERK1/2 (1:1000, Cell Signaling Technologies (4695)), phospho-IKKa/r3 (1:500, Cell Signaling Technologies (2697)), IKKa (1:1000, Cell Signaling Technologies (2682)), phospho-hcBa (1:500, Cell Signaling Technologies (9246)), hcBa (1:1000, Cell Signaling Technologies (4812)), a-tubulin-HRP (1:10,000 Cell Signaling Technologies (9099)), actin (1:10,000 a gift from James Lessard), and GAPDH (1:1000, Cell Signaling Technologies (5174)).
IRAK1 inhibitor. […]
(§1) Cells and media were collected 72 hours later and prepared and analyzed as above. For the time-course experiment, cells were plated and inhibitor was added the following day, with protein collected at 24, 48, and 72 hours and analyzed by western blot for IRAK1 inhibition.

For a further test, the system named is UMSCC1 cells. Description: Flow cytometry for cleaved caspase-3 (apoptosis), UMSCC1. In kind it is cell-based, human. To be noted: UMSCC1, inhibitor vs DMSO, 72 hours, p<0.05. The procedure:
Flow cytometry for Cleaved Caspase-3. Lentivirally transduced cells were plated at equal densities and collected 48 hours later. Cells were fixed and prepped following the BD FITC Active Caspase-3 Apoptosis kit protocol (BD Biosciences). Adenovirally transduced cells were prepped with an Alexa-Fluor 647 conjugated cleaved-caspase 3 antibody to account for GFP-positivity (Cell Signaling Technologies (9602)). Analysis was performed on a BD FacsCanto and data analyzed on FlowJo software (Tree Star, Ashland, Oreg., USA). Experiments were performed 3 times with standard error of the mean (SEM) represented.
IRAK1 inhibitor. UMSCC1 cells were plated at equal densities and IRAK1 inhibitor (IRAK-1/4 inhibitor, 15409, Sigma-Aldrich, St. Louis, Mo., USA) added the same day for caspase-3 flow cytometry experiments. DMSO was added in equal volume for a control.
as §1

The test system of the next test is melanoma cells. The following applies: in vitro and in vivo, references [20, 24]; cited from earlier work.
For another test, the system named is IRAK1 and IRAK4. To be noted: reference [24]; cited from earlier work.
In the next test the test system is MDS. The following applies: references [20, 24]; cited from earlier work.

T1 sequence (P51617 whole entry): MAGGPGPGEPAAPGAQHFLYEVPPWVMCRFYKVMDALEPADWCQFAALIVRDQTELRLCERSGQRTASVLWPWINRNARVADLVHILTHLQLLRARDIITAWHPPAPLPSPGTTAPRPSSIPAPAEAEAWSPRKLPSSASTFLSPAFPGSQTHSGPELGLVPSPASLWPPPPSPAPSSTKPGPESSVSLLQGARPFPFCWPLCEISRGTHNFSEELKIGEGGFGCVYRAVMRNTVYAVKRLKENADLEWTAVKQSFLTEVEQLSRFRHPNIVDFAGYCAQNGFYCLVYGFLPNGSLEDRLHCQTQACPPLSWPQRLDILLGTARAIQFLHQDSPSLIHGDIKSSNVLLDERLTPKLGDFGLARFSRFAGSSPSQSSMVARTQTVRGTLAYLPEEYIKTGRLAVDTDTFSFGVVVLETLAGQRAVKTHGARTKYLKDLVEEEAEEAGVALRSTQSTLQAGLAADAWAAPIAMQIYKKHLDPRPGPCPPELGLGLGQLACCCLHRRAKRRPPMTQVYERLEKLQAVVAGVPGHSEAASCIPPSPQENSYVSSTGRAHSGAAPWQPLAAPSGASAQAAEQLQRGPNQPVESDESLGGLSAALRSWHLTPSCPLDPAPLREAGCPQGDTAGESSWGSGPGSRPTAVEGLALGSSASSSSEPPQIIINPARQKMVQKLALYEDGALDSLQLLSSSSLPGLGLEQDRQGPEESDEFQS

As for `O=C(Nc1nc2ccccc2n1CCN1CCOCC1)c1cccc([N+](=O)[O-])c1` [IRAK-1/4 inhibitor, N-(2-morpholinylethyl)-2-(3-nitrobenzoylamido)-benzimidazole], on IRAK1, the “activation of IRAK1 (phosphorylation of IRAK1)” value is given as “attenuated activation of IRAK1”. Besides, in the test with UMSCC1 cells, the “apoptosis (cleaved caspase-3)” value is given as “Significantly increased apoptosis”. Besides, the “apoptosis in melanoma cells” value in the test on melanoma cells was “increase apoptosis”. For the same compound, the kinase selectivity result in the test with IRAK1 and IRAK4 is “selective for IRAK1 and IRAK4”. Moreover, the “signaling and cell viability in MDS” value with MDS was “inhibit signaling and cell viability”.

These data come from patent publication US10487329B2, “Methods and compositions for the treatment of head and neck cancer” (Children's Hospital Medical Center, priority 2015, dated 2019).
